Results reported in doi:10.1101/2024.08.19.608619, “Discovery of potent SARS-CoV-2 nsp3 macrodomain inhibitors uncovers lack of translation to cellular antiviral response” (bioRxiv, 2024).
Values after ≈ are worked out from the molar mass of the structure shown. Values joined by “and” are separate entries in the source; they are usually repeats but may differ in a detail not shown here. Identical values can stand only once.

System: not listed separately
Test: Hepatic microsomal stability, MLM
Type: in vitro ADME
Settings: In vitro mouse liver microsomal stability

Compound	clint	perc_remaining	t_half
CC(C)[C@@H](Nc1ncnc2[nH]c(-c3cnn(CC(=O)N(C)C)c3)cc12)c1ccc2c(c1)S(=O)(=O)CCC2 (racemic) [ASAP-0008668]	68.0 µL/min/mg	31.0%	24.6 min
CCNC(=O)c1cc2c(N[C@@H](c3ccc4c(c3)S(=O)(=O)CCO4)C(C)C)ncnc2[nH]1 (racemic) [ASAP-0012317]	26.0 µL/min/mg	66.0%	65.5 min

Same assay, conditions: In vitro mouse liver microsomal stability, no cofactor

Compound	perc_remaining_no_cofactor
CCNC(=O)c1cc2c(N[C@@H](c3ccc4c(c3)S(=O)(=O)CCO4)C(C)C)ncnc2[nH]1 (racemic) [ASAP-0012317]	99.0%

Same assay, conditions: In vitro mouse liver microsomal stability; no cofactor

Compound	perc_remaining_no_cofactor
CC(C)[C@@H](Nc1ncnc2[nH]c(-c3cnn(CC(=O)N(C)C)c3)cc12)c1ccc2c(c1)S(=O)(=O)CCC2 (racemic) [ASAP-0008668]	92.0%

System: not listed separately
Test: In vitro kinetic solubility
Settings: In vitro kinetic solubility, ph 7.4

Compound	solubility_mean
CC(C)[C@@H](Nc1ncnc2[nH]c(-c3cnn(CC(=O)N(C)C)c3)cc12)c1ccc2c(c1)S(=O)(=O)CCC2 (racemic) [ASAP-0008668]	38 µM (≈ 19.8 µg/mL)
CCNC(=O)c1cc2c(N[C@@H](c3ccc4c(c3)S(=O)(=O)CCO4)C(C)C)ncnc2[nH]1 (racemic) [ASAP-0012317]	328 µM (≈ 145 µg/mL)

System: not listed separately
Test: LogD
Settings: pH 7.4; In vitro LogD

Compound	logd
CC(C)[C@@H](Nc1ncnc2[nH]c(-c3cnn(CC(=O)N(C)C)c3)cc12)c1ccc2c(c1)S(=O)(=O)CCC2 (racemic) [ASAP-0008668]	2.1
CCNC(=O)c1cc2c(N[C@@H](c3ccc4c(c3)S(=O)(=O)CCO4)C(C)C)ncnc2[nH]1 (racemic) [ASAP-0012317]	2.9

System: not listed separately
Test: Permeability Papp (AB) MDR1/MDCKII
Settings: In vitro MDR1-MDCKII permeability, A to B, mean

Compound	papp_a_to_b_mean
CC(C)[C@@H](Nc1ncnc2[nH]c(-c3cnn(CC(=O)N(C)C)c3)cc12)c1ccc2c(c1)S(=O)(=O)CCC2 (racemic) [ASAP-0008668]	0.67 ×10⁻⁶ cm/s

Same assay, conditions: In vitro MDR1-MDCKII permeability, B to A, no inhibitor

Compound	papp_b_to_a_mean
CCNC(=O)c1cc2c(N[C@@H](c3ccc4c(c3)S(=O)(=O)CCO4)C(C)C)ncnc2[nH]1 (racemic) [ASAP-0012317]	1.5 ×10⁻⁶ cm/s and 1.4 ×10⁻⁶ cm/s

Same assay, conditions: In vitro MDR1-MDCKII permeability, no inhibitor

Compound	efflux_ratio
CCNC(=O)c1cc2c(N[C@@H](c3ccc4c(c3)S(=O)(=O)CCO4)C(C)C)ncnc2[nH]1 (racemic) [ASAP-0012317]	20.3 and 15.3

Same assay, conditions: In vitro MDR1-MDCKII permeability, recovery A to B, mean

Compound	perc_recovery_a_to_b_mean
CC(C)[C@@H](Nc1ncnc2[nH]c(-c3cnn(CC(=O)N(C)C)c3)cc12)c1ccc2c(c1)S(=O)(=O)CCC2 (racemic) [ASAP-0008668]	85.0%

Same assay, conditions: In vitro MDR1-MDCKII permeability, recovery A to B, no inhibitor

Compound	perc_recovery_a_to_b_mean
CCNC(=O)c1cc2c(N[C@@H](c3ccc4c(c3)S(=O)(=O)CCO4)C(C)C)ncnc2[nH]1 (racemic) [ASAP-0012317]	71.9% and 74.3% and 65.2%

Same assay, conditions: In vitro MDR1-MDCKII permeability, recovery B to A, no inhibitor

Compound	perc_recovery_b_to_a_mean
CCNC(=O)c1cc2c(N[C@@H](c3ccc4c(c3)S(=O)(=O)CCO4)C(C)C)ncnc2[nH]1 (racemic) [ASAP-0012317]	68.3% and 88.2%

Same assay, conditions: MDR1-MDCKII, B to A, with inhibitor Verapamil

Compound	papp_b_to_a_inhibitor_mean
CCNC(=O)c1cc2c(N[C@@H](c3ccc4c(c3)S(=O)(=O)CCO4)C(C)C)ncnc2[nH]1 (racemic) [ASAP-0012317]	1.5 ×10⁻⁶ cm/s

Same assay, conditions: MDR1-MDCKII, recovery A to B, with inhibitor Cyclosporin A

Compound	perc_recovery_a_to_b_inhibitor_mean
CCNC(=O)c1cc2c(N[C@@H](c3ccc4c(c3)S(=O)(=O)CCO4)C(C)C)ncnc2[nH]1 (racemic) [ASAP-0012317]	82.7%

Same assay, conditions: MDR1-MDCKII, recovery A to B, with inhibitor Verapamil

Compound	perc_recovery_a_to_b_inhibitor_mean
CCNC(=O)c1cc2c(N[C@@H](c3ccc4c(c3)S(=O)(=O)CCO4)C(C)C)ncnc2[nH]1 (racemic) [ASAP-0012317]	92.9%

Same assay, conditions: MDR1-MDCKII, recovery B to A, with inhibitor Cyclosporin A

Compound	perc_recovery_b_to_a_inhibitor_mean
CCNC(=O)c1cc2c(N[C@@H](c3ccc4c(c3)S(=O)(=O)CCO4)C(C)C)ncnc2[nH]1 (racemic) [ASAP-0012317]	89.0%

Same assay, conditions: MDR1-MDCKII, recovery B to A, with inhibitor Verapamil

Compound	perc_recovery_b_to_a_inhibitor_mean
CCNC(=O)c1cc2c(N[C@@H](c3ccc4c(c3)S(=O)(=O)CCO4)C(C)C)ncnc2[nH]1 (racemic) [ASAP-0012317]	90.3%

System: not listed separately
Test: Hepatic microsomal stability, HLM
Type: in vitro ADME, human
Settings: In vitro human liver microsomal stability

Compound	clint	perc_remaining	t_half
CC(C)[C@@H](Nc1ncnc2[nH]c(-c3cnn(CC(=O)N(C)C)c3)cc12)c1ccc2c(c1)S(=O)(=O)CCC2 (racemic) [ASAP-0008668]	106.0 µL/min/mg	18.0%	15.8 min
CCNC(=O)c1cc2c(N[C@@H](c3ccc4c(c3)S(=O)(=O)CCO4)C(C)C)ncnc2[nH]1 (racemic) [ASAP-0012317]	64.0 µL/min/mg	33.0%	26.2 min

Same assay, conditions: In vitro human liver microsomal stability; no cofactor

Compound	perc_remaining_no_cofactor
CC(C)[C@@H](Nc1ncnc2[nH]c(-c3cnn(CC(=O)N(C)C)c3)cc12)c1ccc2c(c1)S(=O)(=O)CCC2 (racemic) [ASAP-0008668]	92.0%
CCNC(=O)c1cc2c(N[C@@H](c3ccc4c(c3)S(=O)(=O)CCO4)C(C)C)ncnc2[nH]1 (racemic) [ASAP-0012317]	95.0%

System: SARS-CoV-2, isolate USA-WA1/2020
Test: microbe, parasite or virus in culture
Type: cell-based
Settings: HeLa-ACE2 SARS-CoV-2 antiviral effect without P-gp inhibitor; maximum measured response of dose series

Compound	perc_max_measured
CC(C)[C@@H](Nc1ncnc2[nH]c(-c3cnn(CC(=O)N(C)C)c3)cc12)c1ccc2c(c1)S(=O)(=O)CCC2 (racemic) [ASAP-0008668]	98.615%
CCNC(=O)c1cc2c(N[C@@H](c3ccc4c(c3)S(=O)(=O)CCO4)C(C)C)ncnc2[nH]1 (racemic) [ASAP-0012317]	111.753%

Same assay, conditions: HeLa-ACE2 SARS-CoV-2 antiviral effect without P-gp inhibitor; minimum measured response of dose series

Compound	perc_min_measured
CC(C)[C@@H](Nc1ncnc2[nH]c(-c3cnn(CC(=O)N(C)C)c3)cc12)c1ccc2c(c1)S(=O)(=O)CCC2 (racemic) [ASAP-0008668]	84.991%
CCNC(=O)c1cc2c(N[C@@H](c3ccc4c(c3)S(=O)(=O)CCO4)C(C)C)ncnc2[nH]1 (racemic) [ASAP-0012317]	79.377%

Same assay, conditions: HeLa-ACE2 SARS-CoV-2 antiviral effect without P-gp inhibitor; read-out: ec50

Compound	EC50
CC(C)[C@@H](Nc1ncnc2[nH]c(-c3cnn(CC(=O)N(C)C)c3)cc12)c1ccc2c(c1)S(=O)(=O)CCC2 (racemic) [ASAP-0008668]	> 20 µM
CCNC(=O)c1cc2c(N[C@@H](c3ccc4c(c3)S(=O)(=O)CCO4)C(C)C)ncnc2[nH]1 (racemic) [ASAP-0012317]	> 20 µM

Same assay, conditions: HeLa-ACE2 SARS-CoV-2 antiviral effect without P-gp inhibitor; read-out: ec90

Compound	EC90
CC(C)[C@@H](Nc1ncnc2[nH]c(-c3cnn(CC(=O)N(C)C)c3)cc12)c1ccc2c(c1)S(=O)(=O)CCC2 (racemic) [ASAP-0008668]	> 20 µM
CCNC(=O)c1cc2c(N[C@@H](c3ccc4c(c3)S(=O)(=O)CCO4)C(C)C)ncnc2[nH]1 (racemic) [ASAP-0012317]	> 20 µM

System: not listed separately
Test: in vitro
Settings: human, hela-ace2 cells, 50.0

Compound	CC50 at 24 h
CC(C)[C@@H](Nc1ncnc2[nH]c(-c3cnn(CC(=O)N(C)C)c3)cc12)c1ccc2c(c1)S(=O)(=O)CCC2 (racemic) [ASAP-0008668]	> 20 µM
CCNC(=O)c1cc2c(N[C@@H](c3ccc4c(c3)S(=O)(=O)CCO4)C(C)C)ncnc2[nH]1 (racemic) [ASAP-0012317]	> 20 µM

System: HeLa-ACE2 cells
Test: not given
Settings: HeLa-ACE2 cytotoxicity

Compound	CC50	cc10
CC(C)[C@@H](Nc1ncnc2[nH]c(-c3cnn(CC(=O)N(C)C)c3)cc12)c1ccc2c(c1)S(=O)(=O)CCC2 (racemic) [ASAP-0008668]	> 20 µM	> 20.0 µM
CCNC(=O)c1cc2c(N[C@@H](c3ccc4c(c3)S(=O)(=O)CCO4)C(C)C)ncnc2[nH]1 (racemic) [ASAP-0012317]	> 20 µM	> 20.0 µM

Same assay, conditions: HeLa-ACE2 cytotoxicity; highest measured response of the dose series

Compound	perc_max_measured
CC(C)[C@@H](Nc1ncnc2[nH]c(-c3cnn(CC(=O)N(C)C)c3)cc12)c1ccc2c(c1)S(=O)(=O)CCC2 (racemic) [ASAP-0008668]	99.837%
CCNC(=O)c1cc2c(N[C@@H](c3ccc4c(c3)S(=O)(=O)CCO4)C(C)C)ncnc2[nH]1 (racemic) [ASAP-0012317]	105.961%

Same assay, conditions: HeLa-ACE2 cytotoxicity; lowest measured response of the dose series

Compound	perc_min_measured
CC(C)[C@@H](Nc1ncnc2[nH]c(-c3cnn(CC(=O)N(C)C)c3)cc12)c1ccc2c(c1)S(=O)(=O)CCC2 (racemic) [ASAP-0008668]	68.704%
CCNC(=O)c1cc2c(N[C@@H](c3ccc4c(c3)S(=O)(=O)CCO4)C(C)C)ncnc2[nH]1 (racemic) [ASAP-0012317]	74.573%
